Assay results reported in patent publication US20050234113A1, “Antioxidant and radical scavenging activity of synthetic analogs of desferrithiocin” (University of Florida Research Foundation, Inc., priority 2002, published 2005).
“Also recorded” adds a separate entry of the source. Marks after values point to notes of the source that are not given here.

Legend:
[1] = Prevention of iron-mediated oxidation of ascorbate (ascorbate-mediated reduction of Fe(III)); conditions: ascorbate 100 μM, FeCl3 30 μM, pH 7.4, ligand/Fe ratios 0-3, 40 min
[2] = Quenching of the ABTS radical cation
[3] = Table 1, A734, six-minute reaction, pH 7.4, 1.25 to 15 μM
[4] = Table 3, A734, 6-min reaction, values marked b are the inventors' unpublished results

SMILES	effect on ascorbate-mediated reduction of Fe(III) (in words) [1]	Slope × 10^3 OD units/μM (ABTS radical cation quenching) [2, 3]	Slope × 10^3 OD units/μM (ABTS radical cation quenching) [2, 4]
O=C(O)[C@H]1CSC(c2ccc(O)cc2O)=N1 [4′-(HO)-DADMDFT, 4′-hydroxydesazadesmethyldesferrithiocin]	significant protection	−101.6 × 10^3 OD units/μM	−102^b × 10^3 OD units/μM
CC(=O)N(O)CCCCCNC(=O)CCC(=O)N(O)CCCCCNC(=O)CCC(=O)N(O)CCCCCN [DFO, Desferrioxamine B, reference compound]	inhibited; also recorded: significant inhibition	−136.8 × 10^3 OD units/μM	−137^b × 10^3 OD units/μM
